Experiment [1] addresses T1, human Focal Adhesion Kinase (FAK) (Homo sapiens, UniProt Q05397).
T1 construct: FAK (full length human cDNA described by Andre et al); made in house; host or cells: Sf21 insect cells, baculovirus (pFastbac 1); cleared cell lysate used as enzyme stock
Description: FAK3 Kinase Inhibition Assay (in vitro enzyme assay). The format is biochemical. The following applies: read-out: FAK inhibitory activity IC50. The source says: FAK3 Kinase Inhibition Assay
This assay determines the ability of a test compound to inhibit tyrosine kinase activity of human Focal Adhesion Kinase (FAK).
Active FAK protein has been previously expressed in a baculovirus system using a similar N-terminal 6-histidine tag (Protein Expression And Purification, 1996, 7: 12–18). The human FAK cDNA was cloned into the baculovirus transplacement vector, pFastbac 1 (Life Technologies), and the recombinant construct was co-transfected into insect cells (for example Spodoptera frugiperda 21(Sf21)) with viral DNA to prepare recombinant baculovirus (details of the methods for the assembly of recombinant DNA molecules and the preparation and use of recominant baculovirus can be found in standard texts for example Sambrook et al, 1989, Molecular cloning-A Laboratory Manual, 2nd edition, Cold Spring Harbour Laboratory Press and O'Reilly et al, 1992, Baculovirus Expression Vectors-A Laboratory Manual, W. H. Freeman and Co, New York. Details specific to the use of the pFastbac (‘Bac to Bac’) system are provided in Anderson et al., 1995, FOCUS (Life Technologies Bulletin Magazine), 17, p53.)
For expression of biologically active human FAK protein, Sf21 cells were infected with plaque-pure FAK recombinant virus at a multiplicity of infection of 3 and harvested 48 hours later. […]

For another experiment, the target named is T2, CDK4/Cyclin D1 (Homo sapiens, UniProt P11802).
T2 construct: made in house; host or cells: Sf21 insect cells, baculovirus co-infection (pVL1393)
T2 sequence (P11802 whole entry): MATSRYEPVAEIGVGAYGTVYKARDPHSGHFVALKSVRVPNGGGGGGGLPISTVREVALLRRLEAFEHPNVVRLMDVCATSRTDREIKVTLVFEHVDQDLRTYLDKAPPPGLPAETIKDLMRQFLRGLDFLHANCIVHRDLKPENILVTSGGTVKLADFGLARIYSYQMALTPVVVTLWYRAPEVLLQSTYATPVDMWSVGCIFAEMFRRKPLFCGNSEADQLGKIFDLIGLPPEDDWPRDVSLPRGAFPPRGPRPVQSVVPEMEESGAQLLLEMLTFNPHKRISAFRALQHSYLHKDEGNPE
T2 sequence (P24385 whole entry partner): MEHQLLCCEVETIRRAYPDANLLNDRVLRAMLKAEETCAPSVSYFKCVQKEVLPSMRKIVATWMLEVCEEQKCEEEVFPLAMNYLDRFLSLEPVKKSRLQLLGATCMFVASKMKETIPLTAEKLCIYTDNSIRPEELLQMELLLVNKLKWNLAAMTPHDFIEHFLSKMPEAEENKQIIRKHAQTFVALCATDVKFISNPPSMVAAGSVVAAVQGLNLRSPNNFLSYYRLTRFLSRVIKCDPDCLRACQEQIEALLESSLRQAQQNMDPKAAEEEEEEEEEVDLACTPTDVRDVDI
In words: CDK4 Inhibition Assay (Scintillation Proximity Assay, GST-Retinoblastoma substrate). It counts as biochemical. Conditions: in vitro kinase assay, 0.2 μM ATP; read-out: CDK4 inhibitory activity IC50. The procedure: The compounds were tested in an in vitro kinase assay in 96 well format using Scintillation Proximity Assay (SPA-obtained from Amersham) for measuring incorporation of [γ-33-P]-Adenosine Triphosphate into a test substrate (GST-Retinoblastoma). In each well was placed the compound to be tested (diluted in DMSO and water to correct concentrations) and in control wells either p16 as an inhibitor control or DMSO as a positive control.
Approximately 0.5 μl of CDK4/Cyclin D1 partially-purified enzyme (amount dependent on enzyme activity) diluted in 25 μl incubation buffer was added to each well then 20 μl of GST-Rb/ATP/ATP33 mixture (containing 0.5 μg GST-Rb and 0.2 μM ATP and 0.14 μCi [γ-33-P]-Adenosine Triphosphate), and the resulting mixture shaken gently, then incubated at room temperature for 60 minutes.
To each well was then added 150 μL stop solution containing (0.8 mg/well of Protein A-PVT SPA bead (Amersham)), 20 pM/well of Anti-Glutathione Transferase, Rabbit IgG (obtained from Molecular Probes), 61 mM EDTA and 50 mM HEPES pH 7.5 containing 0.05% sodium azide.
The plates were sealed with Topseal-S plate sealers, left for two hours then spun at 2500 rpm, 1124 xg., for 5 minutes. The plates were read on a Topcount for 30 seconds per well. […]
(Scintillation proximity formats need no separation of bound from free tracer.)

pIC50: −log10 of the molar value.

Consider 2 compounds from patent US7067522B2, “2,4,DI (hetero-) arylamino (-oxy)-5-substituted pyrimidines as antineoplastic agents” (AstraZeneca AB, priority 2000, dated 2006).

As a reminder, the pIC50 is −log10 of the IC50, conventionally taken in molar units.

T1 sequence (Q05397 whole entry): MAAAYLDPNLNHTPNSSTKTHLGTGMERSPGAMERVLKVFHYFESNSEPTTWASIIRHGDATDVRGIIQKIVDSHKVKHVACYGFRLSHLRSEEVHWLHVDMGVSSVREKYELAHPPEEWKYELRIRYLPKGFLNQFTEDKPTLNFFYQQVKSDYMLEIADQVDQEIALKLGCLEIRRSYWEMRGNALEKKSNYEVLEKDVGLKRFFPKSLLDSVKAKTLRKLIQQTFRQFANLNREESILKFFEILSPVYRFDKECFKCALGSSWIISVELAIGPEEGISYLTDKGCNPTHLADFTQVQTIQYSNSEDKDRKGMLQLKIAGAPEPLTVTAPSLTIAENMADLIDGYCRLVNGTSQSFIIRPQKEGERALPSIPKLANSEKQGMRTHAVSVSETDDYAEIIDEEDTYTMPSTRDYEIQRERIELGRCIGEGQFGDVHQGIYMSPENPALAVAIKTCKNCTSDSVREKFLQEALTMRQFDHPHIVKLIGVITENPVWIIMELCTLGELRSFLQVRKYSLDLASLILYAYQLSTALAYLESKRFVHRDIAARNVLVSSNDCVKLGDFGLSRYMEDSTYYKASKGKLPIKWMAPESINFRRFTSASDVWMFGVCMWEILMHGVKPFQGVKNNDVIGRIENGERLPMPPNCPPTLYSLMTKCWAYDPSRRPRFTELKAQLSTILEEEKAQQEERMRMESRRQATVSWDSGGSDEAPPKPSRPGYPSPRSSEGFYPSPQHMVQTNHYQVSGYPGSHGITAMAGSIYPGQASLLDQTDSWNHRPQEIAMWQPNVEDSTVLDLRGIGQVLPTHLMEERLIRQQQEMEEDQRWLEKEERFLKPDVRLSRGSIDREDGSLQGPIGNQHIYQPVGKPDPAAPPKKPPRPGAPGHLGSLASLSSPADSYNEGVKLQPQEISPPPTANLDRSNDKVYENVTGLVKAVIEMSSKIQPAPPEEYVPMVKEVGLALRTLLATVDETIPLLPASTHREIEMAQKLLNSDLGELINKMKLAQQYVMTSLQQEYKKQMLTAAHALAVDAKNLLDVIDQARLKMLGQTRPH

Take `CCN(CC)CCOc1ccc(Nc2ncc(Br)c(Nc3ccccc3)n2)cc1` [Example 25]: the pIC50 in experiment [1] was 6.66.

Regarding `OCCOCc1ccc(Nc2ncc(Br)c(Nc3ccccc3)n2)cc1` [Example 31, 4-Anilino-5-bromo-2-[4-(2-hydroxyethoxy)methylanilino]pyrimidine], on CDK4/Cyclin D1, the pIC50 was 6.17.
